Results taken from patent publication US7557100B2, “Antibacterial agents” (Pfizer Inc., priority 2005, dated 2009).
In brackets after ≈: the same amount, converted by molar mass.

Tests used:
[1] = tested on: Staphylococcus aureus SA-1 (UC-76); assay: Microbroth dilution MIC testing against S. aureus; type: cell-based; conditions: S. aureus UC76, CAMHB, 35° C., 16 to 24 hours, read-out: Minimum Inhibitory Concentration S. aureus UC76
Description: (§1) In this example, the in vitro antibacterial activity of selected compounds was determined against S. aureus and H. influenzae. Except for clarifying or modifying statements, MIC testing followed procedures recommended by the NCCLS^1-2 or followed the descriptions cited below.
(§2) Bacterial Cultures At least the following organisms are included in the screen: Staphylococcus aureus SA-1 (UC-76) and H. influenzae HI-3542. Incubations were at 35° C. Stock bacterial cultures were maintained on Tryptic Soy Agar containing 5% Sheep Blood (BD, Becton Dickinson Microbiology Systems, Cockeysville, Md.), anaerobes were maintained on Anaerobic Blood Agar plates—CDC Formulation (BD), and fastidious organisms were maintained on Chocolate Agar II Plates (BD). Specific conditions of handling are listed below.
(§3) Standardized Organism Inocula Frozen stock cultures were used as the initial source of organisms for performing microbroth dilution MIC testing. Stock cultures were passed on their standard growth medium for at least 1 growth cycle (18 24 hours) prior to their use.
(§4) Most bacteria, unless otherwise noted, were prepared directly from agar plates in 10 mL aliquots of the appropriate broth medium. Bacterial cultures were adjusted to the opacity of a 0.5 McFarland Standard (optical density value of 0.28-0.33 on a Perkin-Elmer Lambda EZ150 Spectrophotometer Wellesley, Mass., set at a wavelength of 600 nm).). The adjusted cultures were diluted 400 fold (0.25 mL inoculum+100 mL broth) in growth media to produce a starting suspension of approximately 5×10^5 colony forming units (CFU)/mL. Unless otherwise noted, bacterial strains were tested in cation adjusted Mueller Hinton Broth (CAMHB).
(§5) Test Compound (“Drug”) Preparation Compounds were solubilized in DMSO. Drug stock solutions were prepared on the day of testing. Drugs were weight corrected for assay content where necessary.
(§6) Drug Dilution Tray Preparation Microbroth dilution stock plates were prepared in two dilution series, 64 to 0.06 μg drug/mL and 0.25 to 0.00025 μg drug/mL. For the high concentration series, 200 μL of stock solution (2 mg/mL) was added to duplicate rows of a 96-well microtiter plate. This was used as the first well in the dilution series. Serial two-fold decremental dilutions were made using a BioMek FX robot (Beckman Coulter Inc., Fullerton, Calif.) with 10 of the remaining 11 wells, each of which contained 100 μL of the appropriate solvent/diluent. Row 12 contained solvent/diluent only and served as the control. For tube one of the low concentration series, 200 μL of an 8 μg/mL stock was added to duplicate rows of a 96-well plate. Serial two-fold dilutions were made as described above.
(§7) Daughter plates were spotted (3.2 μL/well) from the stock plates listed above using the BioMek FX robot and were either used immediately or frozen at −70° C. until use.
(§8) Plate Inoculation Aerobic organisms were inoculated (100 μL volumes) into the thawed plates using the BioMek FX robot. The inoculated plates were placed in stacks of no more than 5 and covered with an empty plate. These plates were incubated 16 to 24 hours in ambient atmosphere according to CLSI guidelines^2.
(§9) Reading the Test After inoculation and incubation, the degree of bacterial growth was estimated visually with the aid of a Test Reading Mirror (Dynex Technologies 220 16) in a darkened room with a single light shining directly through the top of the microbroth tray. The MIC was the lowest concentration of drug that prevented macroscopically visible growth under the conditions of the test. Testing was performed in duplicate. When the MIC values in duplicate tests varied by 1 well (2 fold), the lower values were reported. If the MICs varied by 2 dilutions, the middle value was reported. Greater than this 4 fold variance called for the test to be repeated, after which a similar determination was applied to all values.

H. influenzae HI-3542 = assay: Microbroth dilution MIC testing against H. influenzae; type: cell-based; conditions: HI3542, H. influenzae 3542, Haemophilus Test Medium, 35° C., 16 to 24 hours, read-out: Minimum Inhibitory Concentration H. influenzae 3542
Description: as §1, §2
Haemophilus was maintained on Chocolate Agar II Plates at room temperature in a candle jar providing a 3 5% CO2 atmosphere.
as §3, §4
Haemophilus influenzae strains were grown on Chocolate Agar II Plates and tested in Haemophilus Test Medium (Remel, Lenexa, Kans.).
as §5, §6, §7, §8
as §9, with “Greater than this 4 fold variance called for the test to be repeated, after which a similar determination was applied to all values.” left out

Which results are given for C[C@@H]1CN2c3c(cc(-c4cnccn4)c(F)c3F)CC3(C(=O)NC(=O)NC3=O)[C@H]2[C@H](C)O1 [Compound 2, (2R,4S,4aS)-9,10-difluoro-2,4-dimethyl-8-pyrazin-2-yl-1,2,4,4a-tetrahydro-2′H,6H-spiro[1,4-oxazino[4,3-a]quinoline-5,5′-pyrimidine]-2′,4′,6′(1′H,3′H)-trione]?
MIC [1]: 0.125 µg/mL (≈ 0.282 µM); MIC (H. influenzae HI-3542): 0.5 µg/mL (≈ 1.13 µM)

Which results are given for C[C@@H]1CN2c3c(cc(-c4c[n+]([O-])ccn4)c(F)c3F)CC3(C(=O)NC(=O)NC3=O)[C@H]2[C@H](C)O1 [Compound 6, (2R,4S,4aS)-9,10-difluoro-2,4-dimethyl-8-(4-oxidopyrazinpyrazin-2-yl)-1,2,4,4a-tetrahydro-2′H,6H-spiro[1,4-oxazino[4,3-a]quinoline-5,5′-pyrimidine]-2′,4′,6′(1′H,3′H)-trione]?
MIC [1]: 0.5 µg/mL (≈ 1.09 µM); MIC (H. influenzae HI-3542): 0.25 µg/mL (≈ 0.544 µM)
